# From ChEMBL document CHEMBL4184164, “Design, synthesis and biological evaluation of novel oseltamivir derivatives as potent neuraminidase inhibitors” (Bioorg Med Chem Lett, 2017)
# Target: T1, Sialidase (Clostridium perfringens, UniProt P10481)
# T1 sequence (P10481 whole entry): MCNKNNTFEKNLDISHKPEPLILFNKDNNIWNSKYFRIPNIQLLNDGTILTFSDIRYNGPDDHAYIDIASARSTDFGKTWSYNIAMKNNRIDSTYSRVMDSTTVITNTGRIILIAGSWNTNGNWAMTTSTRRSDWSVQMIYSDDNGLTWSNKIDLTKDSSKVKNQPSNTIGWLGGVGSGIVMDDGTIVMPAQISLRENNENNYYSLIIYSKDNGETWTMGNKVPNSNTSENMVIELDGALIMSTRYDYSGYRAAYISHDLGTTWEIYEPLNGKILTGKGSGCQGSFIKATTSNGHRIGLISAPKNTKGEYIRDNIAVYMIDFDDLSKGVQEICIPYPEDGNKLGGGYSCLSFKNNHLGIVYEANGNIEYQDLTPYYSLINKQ
# Test: Inhibition of Clostridium perfringenes neuraminidase activity using 4-methylumbelliferyl-1-alpha-D-N-acetylneuramic acid sodium salt hydrate as substrate by fluorescence based assay
# Conditions: read-out: IC50
row,Structure (SMILES),IC50 [nM]
1,CCOC(=O)C1=C[C@@H](OC(CC)CC)[C@H](NC(C)=O)[C@@H](N)C1 [OSELTAMIVIR],61100
2,CCC(CC)[C@H](NC(C)=O)[C@@H]1[C@H](O)[C@@H](C(=O)O)C[C@H]1NC(=N)N [PERAMIVIR ANHYDROUS],39600

# Same assay, conditions: read-out: pIC50 (converted)
row,Structure (SMILES),IC50 [nM]
1,CCCN[C@@H]1C=C(C(=O)O)C[C@H](N)[C@H]1NC(C)=O,200
2,CCCN(CC)[C@@H]1C=C(C(=O)O)C[C@H](N)[C@H]1NC(C)=O,89.9
3,CCC(CC)N(C)[C@@H]1C=C(C(=O)O)C[C@H](N)[C@H]1NC(C)=O,6
4,CCC(=O)N[C@@H]1C=C(C(=O)O)C[C@H](N)[C@H]1NC(C)=O,2700
5,CCCCN(CC)[C@@H]1C=C(C(=O)O)C[C@H](N)[C@H]1NC(C)=O,84.9
6,CC(=O)N[C@H]1[C@H](N(C)CCc2ccccc2)C=C(C(=O)O)C[C@@H]1N,100
7,CC[C@@H](C)O[C@@H]1C=C(C(=O)O)C[C@H](NC(=N)N)[C@H]1NC(C)=O,0.5
8,CC(=O)N[C@@H]1[C@@H](N)CC(C(=O)O)=C[C@H]1Oc1ccccc1,530
9,CCC(CC)O[C@@H]1C(F)=C(C(=O)O)C[C@H](N)[C@H]1NC(C)=O,3
10,CCCCCCC[C@H](CC)O[C@@H]1C=C(C(=O)O)C[C@H](N)[C@H]1NC(C)=O,1
11,CC(=O)N[C@@H]1[C@@H](N)CC(C(=O)O)=C[C@H]1OCc1ccccc1,619
12,CCCO[C@@H]1C=C(C(=O)O)C[C@H](N=C(N)N)[C@H]1NC(C)=O,2
13,C=CC[C@H](CC)O[C@@H]1C=C(C(=O)O)C[C@H](N)[C@H]1NC(C)=O,1
14,CC(=O)N[C@H]1[C@H](O)C=C(C(=O)O)C[C@@H]1N=C(N)N,100
15,CC[C@@H](CCC1CCCCC1)O[C@@H]1C=C(C(=O)O)C[C@H](N)[C@H]1NC(C)=O,1
16,CC(=O)N[C@@H]1[C@@H](N)CC(C(=O)O)=C[C@H]1NC(=O)C(C)C,6400
17,CC(=O)N[C@H]1[C@H](N(C)C2CCCCC2)C=C(C(=O)O)C[C@@H]1N,200

row,Structure (SMILES),IC50 [nM]
1,CCC(CC)N[C@@H]1C=C(C(=O)O)C[C@H](N)[C@H]1NC(C)=O,11
2,CC[C@H](C)O[C@@H]1C=C(C(=O)O)C[C@H](N)[C@H]1NC(C)=O,10
3,CC[C@H](C)O[C@@H]1C=C(C(=O)O)C[C@H](NC(=N)N)[C@H]1NC(C)=O,0.5
4,CC(=O)N[C@@H]1[C@@H](N)CC(C(=O)O)=C[C@H]1OC(C)C,180
5,CCC(CC)C(=O)N[C@@H]1C=C(C(=O)O)C[C@H](N)[C@H]1NC(C)=O,4000
6,CCCN(CCC)[C@@H]1C=C(C(=O)O)C[C@H](N)[C@H]1NC(C)=O,12
7,CCCCN(C)[C@@H]1C=C(C(=O)O)C[C@H](N)[C@H]1NC(C)=O,180
8,CC[C@@H](CC1CCCCC1)O[C@@H]1C=C(C(=O)O)C[C@H](N)[C@H]1NC(C)=O,16
9,CC(=O)N[C@@H]1[C@@H](N)CC(C(=O)O)=C[C@H]1OCCC(F)(F)F,225
10,CC(=O)N[C@@H]1[C@@H](N)CC(C(=O)O)=C[C@H]1OC1CCCC1,22
11,COCO[C@@H]1C=C(C(=O)O)C[C@H](N)[C@H]1NC(C)=O,2000
12,CC[C@H](CCc1ccccc1)O[C@@H]1C=C(C(=O)O)C[C@H](N)[C@H]1NC(C)=O,12
13,CC(=O)N[C@@H]1[C@@H](N)CC(C(=O)O)=C[C@H]1OCC(C)C,200
14,CC(=O)N[C@@H]1[C@@H](N)CC(C(=O)O)=C[C@H]1OCCCc1ccc(-c2ccccc2)cc1,89.9
15,CCC(CC)O[C@@H]1C=C(C(=O)O)C[C@H](NC(=N)N)[C@H]1NC(C)=O,0.5
16,CCCCO[C@@H]1C=C(C(=O)O)C[C@H](N=C(N)N)[C@H]1NC(C)=O,3

# Tested on: Influenza A virus
# Test: microbe, parasite or virus in culture
# Conditions: A/WSN/1933(H1N1), MDCK
row,Structure (SMILES),IC50 [nM]
1,CCOC(=O)C1=C[C@@H](OC(CC)CC)[C@H](NC(C)=O)[C@@H](N)C1 [OSELTAMIVIR],579
2,CCC(CC)[C@H](NC(C)=O)[C@@H]1[C@H](O)[C@@H](C(=O)O)C[C@H]1NC(=N)N [PERAMIVIR ANHYDROUS],1720
